Experimental data from PubChem BioAssay AID256 (DTP/NCI, 2004).
Where “and” joins values, the source holds several entries; their conditions need not be identical. Equal values may be shown once. Inconclusive results and toxic doses are left out.

Test system: CD2F1 mice, L1210 leukemia ip, survival T/C
Assay: NCI In Vivo Anticancer Drug Screen. Data for tumor model L1210 Leukemia (intraperitoneal) in CD2F1 (CDF1) mice
Settings: higher = longer survival
Method in brief: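 Compound-dosed mice with transplantable tumor versus matched vehicle controls; endpoint ratio T/C reported.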

[1] = endpoint: mean survival time, dose: 100.0 mg/kg/injection, schedule: Q04DX003 (ip), vehicle: saline with Tween-80
[2] = endpoint: mean survival time, dose: 200.0 mg/kg/injection, schedule: Q04DX003 (ip), vehicle: saline with Tween-80
[3] = endpoint: mean survival time, dose: 400.0 mg/kg/injection, schedule: Q04DX003 (ip), vehicle: saline with Tween-80
[4] = endpoint: mean survival time, dose: 100.0 mg/kg/injection, schedule: Q01DX009 (ip), vehicle: saline with Tween-80
[5] = endpoint: mean survival time, dose: 200.0 mg/kg/injection, schedule: Q01DX009 (ip), vehicle: saline with Tween-80
[6] = endpoint: mean survival time, dose: 400.0 mg/kg/injection, schedule: Q01DX009 (ip), vehicle: saline with Tween-80
[7] = endpoint: mean survival time, dose: 100.0 mg/kg/injection, schedule: Q04DX002 (ip), vehicle: saline with Tween-80
[8] = endpoint: mean survival time, dose: 25.0 mg/kg/injection, schedule: Q01DX009 (ip), vehicle: saline
[9] = endpoint: mean survival time, dose: 200.0 mg/kg/injection, schedule: Q04DX002 (ip), vehicle: saline with Tween-80
[10] = endpoint: mean survival time, dose: 400.0 mg/kg/injection, schedule: Q04DX002 (ip), vehicle: saline with Tween-80
[11] = endpoint: mean survival time, dose: 25.0 mg/kg/injection, schedule: Q04DX003 (ip), vehicle: saline with Tween-80
[12] = endpoint: mean survival time, dose: 12.5 mg/kg/injection, schedule: Q01DX009 (ip), vehicle: saline with Tween-80
[13] = endpoint: mean survival time, dose: 25.0 mg/kg/injection, schedule: Q01DX009 (ip), vehicle: saline with Tween-80
[14] = endpoint: mean survival time, dose: 50.0 mg/kg/injection, schedule: Q04DX003 (ip), vehicle: saline with Tween-80
[15] = endpoint: mean survival time, dose: 200.0 mg/kg/injection, schedule: Q01DX009 (ip), vehicle: saline

SMILES: COc1cc(C=Nc2cccc(F)c2)ccc1N(CCCl)CCCl
- T/C (endpoint: mean survival time, dose: 16.0 mg/kg/injection, schedule: Q01DX015 (ip), vehicle: saline): 157 % of control
- T/C (endpoint: mean survival time, dose: 25.0 mg/kg/injection, schedule: Q01DX001 (ip), vehicle: other): 121 % of control
- T/C (endpoint: mean survival time, dose: 50.0 mg/kg/injection, schedule: Q01DX001 (ip), vehicle: other): 119 % of control

SMILES: CCC(=O)c1ccccc1N
- T/C [1]: 90 % of control
- T/C [2]: 105 % of control
- T/C [3]: 97 % of control

SMILES: C(=C\c1cccnc1)/c1ccncc1
- T/C [4]: 97 % of control
- T/C [5]: 95 % of control
- T/C [6]: 106 % of control

SMILES: Cc1[nH]c(=O)c(C(=O)O)c(C)c1[N+](=O)[O-]
- T/C [1]: 96 % of control
- T/C [2]: 94 % of control
- T/C [3]: 96 % of control

SMILES: COc1ccc(/C=N/NC(=S)Nc2ccccn2)cc1OC
- T/C (endpoint: mean survival time, dose: 25.0 mg/kg/injection, schedule: Q04DX002 (ip), vehicle: saline with Tween-80): 92 % of control
- T/C (endpoint: mean survival time, dose: 50.0 mg/kg/injection, schedule: Q04DX002 (ip), vehicle: saline with Tween-80): 92 % of control
- T/C [7]: 88 % of control and 95 % of control

SMILES: CC(C)(C)C(=O)CC(=O)C(C)(C)C.CC(C)(C)C(=O)CC(=O)C(C)(C)C.CC(C)(C)C(=O)CC(=O)C(C)(C)C.[Dy]
- T/C [1]: 97 % of control
- T/C [2]: 94 % of control
- T/C [3]: 94 % of control

SMILES: COC(=O)CCC([NH-])C(=O)O.COC(=O)CCC([NH-])C(=O)O.[NH-]C1CCCCC1[NH-].[Pt+4] (stereo unspecified)
- T/C (endpoint: median survival time, dose: 6.25 mg/kg/injection, schedule: Q04DX003 (ip), vehicle: saline): 100 % of control
- T/C (endpoint: median survival time, dose: 12.5 mg/kg/injection, schedule: Q04DX003 (ip), vehicle: saline): 96 % of control
- T/C (endpoint: median survival time, dose: 25.0 mg/kg/injection, schedule: Q04DX003 (ip), vehicle: saline): 97 % of control
- T/C (endpoint: median survival time, dose: 50.0 mg/kg/injection, schedule: Q04DX003 (ip), vehicle: saline): 108 % of control
- T/C (endpoint: median survival time, dose: 100.0 mg/kg/injection, schedule: Q04DX003 (ip), vehicle: saline): 110 % of control

SMILES: ClC1CN2CCC1CC2 (stereo unspecified)
- T/C (endpoint: mean survival time, dose: 12.5 mg/kg/injection, schedule: Q01DX009 (ip), vehicle: saline): 95 % of control
- T/C [8]: 90 % of control and 105 % of control
- T/C (endpoint: mean survival time, dose: 50.0 mg/kg/injection, schedule: Q01DX009 (ip), vehicle: saline): 93 % of control and 94 % of control

SMILES: CCCN1C(=O)C2C3CCC(O3)C2C1=O (stereo unspecified)
- T/C [7]: 95 % of control
- T/C [9]: 106 % of control
- T/C [10]: 102 % of control

SMILES: CNc1ccc(CSc2ccccc2)cc1
- T/C (endpoint: mean survival time, dose: 100.0 mg/kg/injection, schedule: Q01DX001 (ip), vehicle: Klucel (hydroxypropylcellulose) (HPC)): 96 % of control
- T/C (endpoint: mean survival time, dose: 200.0 mg/kg/injection, schedule: Q01DX001 (ip), vehicle: Klucel (hydroxypropylcellulose) (HPC)): 96 % of control
- T/C (endpoint: mean survival time, dose: 400.0 mg/kg/injection, schedule: Q01DX001 (ip), vehicle: Klucel (hydroxypropylcellulose) (HPC)): 87 % of control

SMILES: COc1cc(/C=N\N=C\c2ccc(O)c(OC)c2)ccc1O
- T/C [4]: 98 % of control
- T/C [5]: 96 % of control

SMILES: Cc1ccnc(NC2=CC(=O)C(=O)c3ccccc32)c1
- T/C (endpoint: mean survival time, dose: 100.0 mg/kg/injection, schedule: Q01DX009 (ip), vehicle: saline sonified): 108 % of control
- T/C (endpoint: mean survival time, dose: 200.0 mg/kg/injection, schedule: Q01DX009 (ip), vehicle: saline sonified): 103 % of control

SMILES: O=[N+]([O-])c1cccc(/C=C/c2ccccn2)c1
- T/C (endpoint: mean survival time, dose: 50.0 mg/kg/injection, schedule: Q01DX009 (ip), vehicle: Klucel (hydroxypropylcellulose) (HPC)): 98 % of control
- T/C (endpoint: mean survival time, dose: 100.0 mg/kg/injection, schedule: Q01DX009 (ip), vehicle: Klucel (hydroxypropylcellulose) (HPC)): 98 % of control
- T/C (endpoint: mean survival time, dose: 200.0 mg/kg/injection, schedule: Q01DX009 (ip), vehicle: Klucel (hydroxypropylcellulose) (HPC)): 90 % of control

SMILES: O=C(O)CCN(Cl)Cl
- T/C (endpoint: mean survival time, dose: 1.56 mg/kg/injection, schedule: Q01DX009 (ip), vehicle: saline): 97 % of control
- T/C (endpoint: mean survival time, dose: 3.13 mg/kg/injection, schedule: Q01DX009 (ip), vehicle: saline): 102 % of control
- T/C (endpoint: mean survival time, dose: 6.25 mg/kg/injection, schedule: Q01DX009 (ip), vehicle: saline): 100 % of control

SMILES: N#Cc1ccccc1C#N
- T/C [11]: 97 % of control

SMILES: c1cc2c(c(NC3=NCCN3)c1)CCCC2
- T/C [12]: 96 % of control
- T/C [13]: 100 % of control
- T/C (endpoint: mean survival time, dose: 50.0 mg/kg/injection, schedule: Q01DX009 (ip), vehicle: saline with Tween-80): 111 % of control

SMILES: O=C(O)COc1cc(F)c(Cl)cc1F
- T/C [7]: 102 % of control
- T/C [9]: 105 % of control
- T/C [10]: 109 % of control

SMILES: O=C(O)CC1C=CCC1 (stereo unspecified)
- T/C (endpoint: mean survival time, dose: 6.25 mg/kg/injection, schedule: Q04DX003 (ip), vehicle: saline): 102 % of control
- T/C (endpoint: mean survival time, dose: 12.5 mg/kg/injection, schedule: Q04DX003 (ip), vehicle: saline): 97 % of control
- T/C (endpoint: mean survival time, dose: 25.0 mg/kg/injection, schedule: Q04DX003 (ip), vehicle: saline): 97 % of control
- T/C [1]: 98 % of control

SMILES: CC#CC(=O)O
- T/C (endpoint: mean survival time, dose: 100.0 mg/kg/injection, schedule: Q04DX002 (ip), vehicle: saline): 98 % of control

SMILES: COc1ccc(C=NC2C(OC(C)=O)OC(COC(C)=O)C(OC(C)=O)C2OC(C)=O)cc1 (stereo unspecified)
- T/C (endpoint: mean survival time, dose: 6.25 mg/kg/injection, schedule: Q01DX009 (ip), vehicle: other): 96 % of control
- T/C (endpoint: mean survival time, dose: 12.5 mg/kg/injection, schedule: Q01DX009 (ip), vehicle: other): 96 % of control
- T/C (endpoint: mean survival time, dose: 25.0 mg/kg/injection, schedule: Q01DX009 (ip), vehicle: other): 93 % of control
- T/C (endpoint: mean survival time, dose: 50.0 mg/kg/injection, schedule: Q01DX009 (ip), vehicle: other): 94 % of control
- T/C (endpoint: mean survival time, dose: 100.0 mg/kg/injection, schedule: Q01DX009 (ip), vehicle: other): 96 % of control

SMILES: Oc1cccc2c1NCCC2
- T/C [11]: 104 % of control
- T/C [14]: 98 % of control
- T/C [1]: 91 % of control and 102 % of control

SMILES: CC1CCC2CC(=O)NC(=O)CC12 (stereo unspecified)
- T/C (endpoint: mean survival time, dose: 6.25 mg/kg/injection, schedule: Q01DX009 (ip), vehicle: saline with Tween-80): 98 % of control
- T/C (endpoint: mean survival time, dose: 6.25 mg/kg/injection, schedule: Q04DX003 (ip), vehicle: saline with Tween-80): 97 % of control
- T/C [12]: 95 % of control
- T/C (endpoint: mean survival time, dose: 12.5 mg/kg/injection, schedule: Q04DX003 (ip), vehicle: saline with Tween-80): 97 % of control
- T/C [13]: 96 % of control
- T/C [11]: 92 % of control

SMILES: C1CN(CC2COC(CN3CCOCC3)CO2)CCO1 (stereo unspecified)
- T/C (endpoint: mean survival time, dose: 100.0 mg/kg/injection, schedule: Q01DX009 (ip), vehicle: saline): 102 % of control
- T/C [15]: 102 % of control
- T/C (endpoint: mean survival time, dose: 400.0 mg/kg/injection, schedule: Q01DX009 (ip), vehicle: saline): 104 % of control

SMILES: O=C(O)c1ccc(NC(=S)NC(=O)c2cccc(Br)c2)cc1
- T/C (endpoint: mean survival time, dose: 100.0 mg/kg/injection, schedule: Q01DX001 (ip), vehicle: saline with Tween-80): 97 % of control
- T/C [4]: 95 % of control and 97 % of control
- T/C [7]: 95 % of control
- T/C [1]: 100 % of control
- T/C (endpoint: mean survival time, dose: 200.0 mg/kg/injection, schedule: Q01DX001 (ip), vehicle: saline with Tween-80): 88 % of control and 101 % of control
- T/C [5]: 95 % of control and 101 % of control
- T/C [9]: 94 % of control and 103 % of control
- T/C [2]: 90 % of control
- T/C (endpoint: mean survival time, dose: 400.0 mg/kg/injection, schedule: Q01DX001 (ip), vehicle: saline with Tween-80): 92 % of control and 95 % of control
- T/C [6]: 86 % of control
- T/C [10]: 97 % of control and 106 % of control
- T/C [3]: 93 % of control

SMILES: COc1cc(C[C@@H]2COC(=O)[C@]2(O)Cc2ccc(O)c(OC)c2)ccc1O
- T/C (endpoint: mean survival time, dose: 1.0 mg/kg/injection, schedule: Q01DX009 (ip), vehicle: saline + alcohol): 106 % of control
- T/C (endpoint: mean survival time, dose: 2.0 mg/kg/injection, schedule: Q01DX009 (ip), vehicle: saline + alcohol): 104 % of control
- T/C (endpoint: mean survival time, dose: 4.0 mg/kg/injection, schedule: Q01DX009 (ip), vehicle: saline + alcohol): 106 % of control
- T/C (endpoint: mean survival time, dose: 8.0 mg/kg/injection, schedule: Q01DX009 (ip), vehicle: saline + alcohol): 103 % of control
- T/C (endpoint: mean survival time, dose: 16.0 mg/kg/injection, schedule: Q01DX009 (ip), vehicle: saline + alcohol): 101 % of control

SMILES: O=C1C(=O)C(c2ccccc2)(c2ccccc2)c2cc(-c3ccccc3)c(-c3ccccc3)cc21
- T/C [11]: 93 % of control
- T/C [14]: 89 % of control
- T/C [1]: 93 % of control

SMILES: Nc1cccc(OCc2ccc([N+](=O)[O-])cc2)c1
- T/C (endpoint: mean survival time, dose: 100.0 mg/kg/injection, schedule: Q04DX002 (ip), vehicle: Klucel (hydroxypropylcellulose) (HPC)): 86 % of control
- T/C (endpoint: mean survival time, dose: 200.0 mg/kg/injection, schedule: Q04DX002 (ip), vehicle: Klucel (hydroxypropylcellulose) (HPC)): 107 % of control
- T/C (endpoint: mean survival time, dose: 400.0 mg/kg/injection, schedule: Q04DX002 (ip), vehicle: Klucel (hydroxypropylcellulose) (HPC)): 95 % of control

SMILES: NC(CSC(c1ccccc1)(c1ccccc1)c1ccccc1)C(=O)NCC(=O)O (stereo unspecified)
- T/C [8]: 110 % of control
- T/C [15]: 171 % of control
